This is an account of results in patent US20080269267A1, “KINASE INHIBITORS USEFUL FOR THE TREATMENT OF MYLEOPROLIFIC DISEASES AND OTHER PROLIFERATIVE DISEASES” (Deciphera Pharmaceuticals, LLC, priority 2007, published 2008).

Experiment [1] concerns the target T1, BaF3 cells transfected with T315I p210 BCR-Abl (Homo sapiens, UniProt P00519, T315I, cells depend on it).
T1 construct: fused on or other part: P11274 (Breakpoint cluster region protein)
Nature of the experiment: Ba/F3 p210 T315I whole cell proliferation assay (Cell Titer Blue, 72 hours). The format is cell-based. As to conditions: 72 hours incubation; read-out: Ba/F3 p210 T315I whole cell proliferation assay, antiproliferation IC50. As for the experimental part: BaF3 cells (parental or transfected with the following: wild type p210 BCR-Abl and T315I p210 BCR-Abl was obtained from Professor Richard Van Etten (New England Medical Center, Boston, Mass.). Briefly, cells were grown in RPMI 1640 supplemented with 10% characterized fetal bovine serum (HyClone, Logan, Utah) at 37 degrees Celsius, 5% CO2, 95% humidity. Cells were allowed to expand until reaching 80% saturation at which point they were subcultured or harvested for assay use.
A serial dilution of test compound was dispensed into a 96 well black clear bottom plate (Corning, Corning, N.Y.). For each cell line, three thousand cells were added per well in complete growth medium. Plates were incubated for 72 hours at 37 degrees Celsius, 5% CO2, 95% humidity. At the end of the incubation period Cell Titer Blue (Promega, Madison, Wis.) was added to each well and an additional 4.5 hour incubation at 37 degrees Celsius, 5% CO2, 95% humidity was performed. Plates were then read on a BMG Fluostar Optima (BMG, Durham, N.C.) using an excitation of 544 nm and an emission of 612 nm. Data was analyzed using Prism software (Graphpad, San Diego, Calif.) to calculate IC50's.

Experiment [2] concerns the target T2, T315I Abl kinase (SEQ ID NO:2) (Homo sapiens, UniProt P00519, T315I).
T2 construct: purchased deCode Genetics
T2 sequence (P00519 with tags, fused parts or gaps T315I): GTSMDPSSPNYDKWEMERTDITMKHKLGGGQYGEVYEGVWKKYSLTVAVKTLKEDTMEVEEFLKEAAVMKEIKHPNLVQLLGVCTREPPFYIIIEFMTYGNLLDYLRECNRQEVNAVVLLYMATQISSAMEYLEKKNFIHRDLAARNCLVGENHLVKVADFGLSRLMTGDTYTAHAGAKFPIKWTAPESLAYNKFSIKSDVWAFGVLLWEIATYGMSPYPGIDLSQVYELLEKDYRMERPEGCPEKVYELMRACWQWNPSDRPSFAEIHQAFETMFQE
Nature of the experiment: T315I Abl kinase assay (pyruvate kinase/lactate dehydrogenase coupled). The settings on record: 1 h preincubation at 30° C., ATP 500 μM; read-out: Abl T315l Enzyme Assay, biochemical IC50. As for the experimental part: Abl Kinase (SEQ ID NO:2) Assay
Activity of T315I Abl kinase (SEQ ID NO:2) was determined by following the production of ADP from the kinase reaction through coupling with the pyruvate kinase/lactate dehydrogenase system (e.g., Schindler, et al. Science (2000) 289, 1938-1942). In this assay, the oxidation of NADH (thus the decrease at A340nm) was continuously monitored spectrophometrically. The reaction mixture (100 μl) contained Abl kinase (4.4 nM. […] Abl from deCode Genetics), peptide substrate (EAIYAAPFAKKK, 0.2 mM), MgCl2 (10 mM), pyruvate kinase (4 units), lactate dehydrogenase (0.7 units), phosphoenol pyruvate (1 mM), and NADH (0.28 mM) in 90 mM Tris buffer containing 0.2% octyl-glucoside and 1% DMSO, pH 7.5. Test compounds were incubated with T315I Abl (SEQ ID NO:2) and other reaction reagents at 30° C. for 1 h before ATP (500 μM) was added to start the reaction. The absorption at 340 nm was monitored continuously for 2 hours at 30° C. on Polarstar Optima plate reader (BMG). The reaction rate was calculated using the 1.0 to 2.0 h time frame. Percent inhibition was obtained by comparison of reaction rate with that of a control (i.e. with no test compound). IC50 values were calculated from a series of percent inhibition values determined at a range of inhibitor concentrations using software routines as implemented in the GraphPad Prism software package.

Experiment [3] has as its target B-Raf(V600E) kinase (SEQ ID NO:11) (Homo sapiens, UniProt P15056, V600E). Nature of the experiment: B-Raf(V600E) kinase assay (pyruvate kinase/lactate dehydrogenase coupled, MEK1 substrate). As to conditions: 1 h preincubation at 30° C., ATP 0.2 mM; read-out: B-Raf V600E Enzyme Assay, biochemical IC50. As to the method: B-Raf(V600E) Kinase Assay
The activity of B-Raf(V600E) kinase (SEQ ID NO:11) was determined by following the formation of ADP from the reaction through coupling with the pyruvate kinase/lactate dehydrogenase system (e.g., Schindler, et al. Science (2000) 289, 1938-1942). In this assay, the oxidation of NADH (thus the decrease at A340nm) was continuously monitored spectrophotometrically. The reaction mixture (100 μl) contained B-Raf(V600E) kinase (0.34 nM nominal concentration, SEQ ID NO:11), unphosphorylated, full-length MEK1 (42 nM, SEQ ID NO:12), MgCl2 (13 mM), pyruvate kinase (3.5 units), lactate dehydrogenase (5.5 units), phosphoenolpyruvate (1 mM), and NADH (0.28 mM), in 60 mM Tris buffer, containing 0.13% octyl-glucoside and 3.5% DMSO concentration at pH 7.5. The test compounds were incubated with the reaction mixture at 30° C. for 1 h. The reaction was initiated by adding ATP (0.2 mM, final concentration). The absorption at 340 nm was continuously monitored for 3 h at 30° C. on a Polarstar Optima plate reader (BMG). The reaction rate was calculated using the 0.5 h to 1.5 h time frame. Percent inhibition was obtained by comparison of reaction rate with that of a control (i.e. with no test compound). IC50 values were calculated from a series of percent inhibition values determined at a range of inhibitor concentrations using software routines as implemented in the GraphPad Prism software package.

pIC50: −log10 of the molar value. Structures can show the parent of a compound that is named as a salt.

Chain of B-Raf(V600E) kinase (SEQ ID NO:11) (P15056 with tags, fused parts or gaps V600E): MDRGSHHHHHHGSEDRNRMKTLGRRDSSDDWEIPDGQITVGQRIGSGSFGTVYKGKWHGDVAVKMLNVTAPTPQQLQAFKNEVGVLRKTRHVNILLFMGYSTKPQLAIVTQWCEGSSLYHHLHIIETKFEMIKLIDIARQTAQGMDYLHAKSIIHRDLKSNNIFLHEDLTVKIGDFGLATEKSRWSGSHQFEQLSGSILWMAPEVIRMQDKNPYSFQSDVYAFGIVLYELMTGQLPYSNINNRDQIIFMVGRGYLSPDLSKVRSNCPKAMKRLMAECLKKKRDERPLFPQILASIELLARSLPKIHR

For orientation: pIC50 means the negative decadic logarithm of the IC50, by convention in mol/L. As for “1-(2-tert-butyl-4-(pyridin-3-yl)pyrimidin-5-yl)-3-(2-fluoro-5-(8-methyl-2-(methylamino)-7-oxo-7,8-dihydropyrido[2,3-d]pyrimidin-6-yl)phenyl)urea [Example 10]”, the GI50 in experiment [1] is < 100 nM. In addition, the pIC50 in experiment [2] was > 4.00; in experiment [3] it was > 6.00.

With `CC(C)c1cc(NC(=O)Nc2ccc(Oc3ccnc(-c4cnn(C)c4)c3)cc2F)n(-c2cccc(C#N)c2)n1` [Example 2, 1-(1-(3-cyanophenyl)-3-isopropyl-1H-pyrazol-5-yl)-3-(2-fluoro-4-(2-(1-methyl-1H-pyrazol-4-yl)pyridin-4-yloxy)phenyl)urea], in experiment [1], the GI50 is < 100 nM. For the same molecule, the pIC50 in experiment [2] and in experiment [3] was > 7.00 in each case.

For the molecule `CC(C)(C)c1cc(NC(=O)Nc2ccc(Oc3ccnc(-c4cn[nH]c4)c3)cc2F)n(-c2cccc(C#N)c2)n1` [Example 3, 1-(4-(2-(1H-pyrazol-4-yl)pyridin-4-yloxy)-2-fluorophenyl)-3-(3-tert-butyl-1-(3-cyanophenyl-1H-pyrazol-5-yl)urea hydrochloride], the GI50 in experiment [1] is < 100 nM. Also, the negative logarithm of the IC50 (pIC50) in experiment [2] and in experiment [3] was > 7.00 throughout.

Regarding `Cn1cc(-c2cc(Oc3ccc(NC(=O)Nc4cc(C(C)(C)C)nn4-c4cccc(C#N)c4)c(F)c3)ccn2)cn1` [Example 4, 1-(3-tert-butyl-1-(3-cyanophenyl)-1H-pyrazol-5-yl)-3-(2-fluoro-4-(2-(1-methyl-1H-pyrazol-4-yl)pyridin-4-yloxy)phenyl)urea hydrochloride], the GI50 in experiment [1] is < 100 nM. For the same molecule, the pIC50 in experiment [2] and in experiment [3] was > 7.00 throughout.

Consider `CC(C)c1cc(NC(=O)Nc2ccc(Oc3ccnc(-c4cnn(C)c4)c3)cc2F)n(-c2ccc(F)c(C#N)c2)n1` [Example 5, 1-(1-(3-cyano-4-fluorophenyl)-3-isopropyl-1H-pyrazol-5-yl)-3-(2-fluoro-4-(2-(1-methyl-1H-pyrazol-4-yl)pyridin-4-yloxy)phenyl)urea], for which, in experiment [1], the GI50 is < 100 nM. Also, the pIC50 in experiment [2] and in experiment [3] was > 7.00 throughout.

Take `Cn1cc(-c2cc(Oc3ccc(NC(=O)Nc4cc(C(C)(C)C)nn4-c4ccc(C#N)cc4)c(F)c3)ccn2)cn1` [Example 6, 1-(3-tert-butyl-1-(4-cyanophenyl)-1H-pyrazol-5-yl)-3-(2-fluoro-4-(2-(1-methyl-1H-pyrazol-4-yl)pyridin-4-yloxy)phenyl)urea]: the GI50 in experiment [1] is < 100 nM. Besides, the pIC50 in experiment [2] and in experiment [3] was > 7.00 each time.

For `Cn1cc(-c2cc(Oc3ccc(NC(=O)Nc4cc(C(C)(C)C)nn4-c4cccc(CO)c4)c(F)c3)ccn2)cn1` [Example 7, 1-(3-tert-butyl-1-(3-(hydroxymethyl)phenyl)-1H-pyrazol-5-yl)-3-(2-fluoro-4-(2-(1-methyl-1H-pyrazol-4-yl)pyridin-4-yloxy)phenyl)urea p-toluenesulfonic acid], the GI50 in experiment [1] was < 100 nM. Besides, the pIC50 in experiment [2] and in experiment [3] was > 7.00 throughout.

As for `Cn1cc(-c2cc(Oc3ccc(NC(=O)Nc4cc(C(C)(C)C)nn4-c4ccc(CO)cc4)c(F)c3)ccn2)cn1` [Example 8, 1-(3-tert-butyl-1-(4-(hydroxymethyl)phenyl)-1H-pyrazol-5-yl)-3-(2-fluoro-4-(2-(1-methyl-1H-pyrazol-4-yl)pyridin-4-yloxy)phenyl)urea], the GI50 in experiment [1] is < 100 nM. In addition, the pIC50 in experiment [2] and in experiment [3] was > 7.00 in each case.

For the molecule `CCc1cc(NC(=O)Nc2ccc(Oc3ccnc(-c4cnn(C)c4)c3)cc2F)n(-c2cccc(C#N)c2)n1` [Example 9, 1-(1-(3-cyanophenyl)-3-ethyl-1H-pyrazol-5-yl)-3-(2-fluoro-4-(2-(1-methyl-1H-pyrazol-4-yl)pyridin-4-yloxy)phenyl)urea], the GI50 in experiment [1] was < 100 nM. Further, the figures for the pIC50 in experiment [2] and in experiment [3] were > 7.00 and > 6.00, respectively.

Take `Cc1ccc(-n2nc(C(C)C)cc2NC(=O)Nc2ccc(Oc3ccnc(-c4cnn(C)c4)c3)cc2F)cc1C#N` [Example 11, 1-(1-(3-cyano-4-methylphenyl)-3-isopropyl-1H-pyrazol-5-yl)-3-(2-fluoro-4-(2-(1-methyl-1H-pyrazol-4-yl)pyridin-4-yloxy)phenyl)urea]: in experiment [1], the GI50 is < 100 nM. The pIC50 in experiment [2] and in experiment [3] was > 7.00 throughout.

Take `Cc1c(Oc2ccnc(-c3cnn(C)c3)c2)ccc(NC(=O)Nc2cc(C(C)C)nn2-c2cccc(C#N)c2)c1F` [Example 12, 1-(1-(3-cyanophenyl)-3-isopropyl-1H-pyrazol-5-yl)-3-(2-fluoro-3-methyl-4-(2-(1-methyl-1H-pyrazol-4-yl)pyridin-4-yloxy)phenyl)urea]: the GI50 in experiment [1] is < 100 nM. The pIC50 in experiment [2] and in experiment [3] was > 7.00 each time.

As to `CC(C)c1cc(NC(=O)Nc2ccc(Oc3ccnc(-c4cnn(C)c4)c3)c(F)c2F)n(-c2cccc(C#N)c2)n1` [Example 13, 1-(1-(3-cyanophenyl)-3-isopropyl-1H-pyrazol-5-yl)-3-(2,3-difluoro-4-(2-(1-methyl-1H-pyrazol-4-yl)pyridin-4-yloxy)phenyl)urea], the GI50 in experiment [1] is < 100 nM. Besides, the pIC50 in experiment [2] and in experiment [3] was > 7.00 in each case.

Turning to `Cc1ncc(NC(=O)Nc2ccc(Oc3ccnc(-c4cnn(C)c4)c3)cc2F)c(-c2ccccc2)n1` [Example 14, 1-(2-fluoro-4-(2-(1-methyl-1H-pyrazol-4-yl)pyridin-4-yloxy)phenyl)-3-(2-methyl-4-phenylpyrimidin-5-yl)urea], the GI50 in experiment [1] is < 100 nM. The pIC50 in experiment [2] and in experiment [3] was > 4.00 in each case.

In the case of `CC(C)c1cc(NC(=O)Nc2ccc(Oc3ccnc(-c4cnn(C)c4)c3)c(F)c2)n(-c2cccc(C#N)c2)n1` [Example 16, 1-(1-(3-cyanophenyl)-3-isopropyl-1H-pyrazol-5-yl)-3-(3-fluoro-4-(2-(1-methyl-1H-pyrazol-4-yl)pyridin-4-yloxy)phenyl)urea], the GI50 in experiment [1] is < 100 nM. In addition, the pIC50 in experiment [2] and in experiment [3] was > 7.00 throughout.

With `CCc1cc(NC(=O)Nc2ccc(Oc3ccnc(-c4cnn(C(C)C)c4)c3)cc2F)n(-c2cccc(C#N)c2)n1` [Example 17, 1-(1-(3-cyanophenyl)-3-ethyl-1H-pyrazol-5-yl)-3-(2-fluoro-4-(2-(1-isopropyl-1H-pyrazol-4-yl)pyridin-4-yloxy)phenyl)urea], the GI50 in experiment [1] is < 100 nM. The pIC50 is > 7.00 in experiment [2] and > 5.00 in experiment [3].
